Here are results for one compound from article PMC10198994 (Scientific Reports, 2023).

Data set [1] in a line: Static equilibrium solubility of HCQS in supercritical carbon dioxide (UV-vis spectrophotometer). It is filed as physicochemical. The settings on record: for solubility thermodynamic at 1 h: thermodynamic from solid, read-out: Equilibrium solubility, S. The procedure:
SCF-solubility of the drugs was experimentally measured via two broad classes of saturated solution-based methods, where solubility measurement can be done either (1) statically or (2) dynamically. […] The solubilities were measured with the help of an equilibrium cell. Thermodynamically, the method employed may be regarded as an isobaric-isothermal method. All the measurements are taken by keeping system temperatures and pressures at the desired value with high precision (i.e., ± 0.1 K and ± 0.1 MPa). Complete details about the equipment and measurement procedures are presented elsewhere[15]–[35]. However, the description of the equipment and the methodology employed in establishing solubility data are briefly presented in this section. The scCO2 is pumped to the equilibrium cell and drug sample and scCO2 are thoroughly mixed and allowed to attain equilibrium. […] To ensure equilibrium solubility, the experiments are performed with fresh samples at various time intervals. […] For each sampling a 600 µL volume saturated sample is collected via a collection valve in a deionized water preloaded sample vial. After discharging of each sample, the sampling valve was cleaned with 1 ml of deionized water. Drug sample solubility is estimated with the following formula:1 y2=ndrug/ndrug+nCO2 where y2 is solubility of the drug in scCO2, ndrug and nCO2 are number of moles of the drug and CO2 in the sampling loop, respectively.
The following formulas are used in data conversion2 ndrug=Cs·Vs/Ms 3 nCO2=V1ρ1/MCO2 where Cs is concentration of the drug in g/L. V1 = 600 × 10^–6 L and Vs = 5 × 10^–3 L are sampling loop and vial volumes, respectively. Ms and MCO2 are drug and CO2 molecular weights, respectively. ρ1 is density of scCO2 at each experimental condition, as presented in Table 2.
Solubility is also described as4 S=CSVs/V1
The solubility and mole fraction relation is described as5 S=ρMs/MCO2y2/1-y2

A short description of data set [2]: Total, sublimation and solvation enthalpies of HCQS in scCO2 from Chrastil, reformulated Chrastil and Bartle et al. model constants. It is filed as physicochemical. The text has this: In the year 1981, Josef Chrastil presented a model for the solubility of solids/liquids in SCF. The main basis of the model is a solvate complex formulation based on a simple reaction. According to Chrastil, solubility is explained by c2=c2(κ,ρ1,T) , where κ is association number, ρ1 is solvent density (scCO2) and T is temperature. Chrastil proposed Eq. (19)19 c2=ρ1κexpA1+B1/T
In the year 2009, Garlpati and Madras has reformulated Chrastil's model and it is expressed by Eq. (21), where solubility is explained by y2=y2κ^′,ρ1,T , in which κ^′ is association number, ρ1 is solvent density (scCO2) and T is temperature.21 y2=RTρ1/MScFf^∙^κ^′-1expA2+B2/T in Eq. (21), R denotes universal constant of ideal gas, MScF is molecular weight of solvent, f^∗ is reference pressure and A2 and B2 are the Reformulated model constants.
The solute sublimation enthalpy is calculated with Bartle et al., model and it is stated as23 lny2P/Pref=A4+B4/T+C4ρ1-ρref where A4 to C4 are the model constants. Using the constant B4 , sublimation enthalpy is calculated (i.e., ΔsubH=-B4R ).
Solid–liquid model requires enthalpy of fusion, molar volume and melting point of the solute. Enthalpy of fusion is estimated with the help Jain et al.[77], and molar volume of the solute is estimated with the help Immirzi and Perini method. The calculated molar enthalpy and molar volumes are 65,208 J mol^−1 and 3.306 × 10^–4 m^3 mol^−1, respectively. The melting temperature is obtained from the material safety data sheet as 240 °C. From Chrastil's model constant ( B1 ), total enthalpy is calculated ( B1 × R). From Bartle’s model constant ( B4 ), sublimation enthalpy is calculated ( ΔsubH=-B4R ). From the magnitude difference between total and sublimation enthalpies, solvation enthalpy is calculated. Similarly, from reformulated Chrastil's model constant ( B2 ) and Bartle’s model constant ( B4 ), combination solvation enthalpy is calculated. […] This may be due to a smaller number of parameters in the models; on the other hand, the correlating ability of the solvate complex models is quite good. […]

Structures can show the parent of a compound that is named as a salt. Where two headings read alike, the source gives them in different places. Marks after values point to notes of the source that are not given here.

On to `CCN(CCO)CCCC(C)Nc1ccnc2cc(Cl)ccc12` (centres unmarked) [HCQS, Hydroxychloroquine sulfate], for which the “rise in solubility when temperature is raised from 308 to 338 K” value in data set [1] (12 MPa) was found to be 4.6 folds; in data set [1] (27 MPa) it was 3.8 folds. The solubility thermodynamic at 1 h in data set [1] (supercritical carbon dioxide (scCO2) in an equilibrium cell, scCO2, 308 K, 210 bar) came to 93.9 µg/mL; in data set [1] (supercritical carbon dioxide (scCO2) in an equilibrium cell, scCO2, 308 K, 270 bar) it was 132 µg/mL; in data set [1] (supercritical carbon dioxide (scCO2) in an equilibrium cell, scCO2, 318 K, 120 bar) it was 40.9 µg/mL; in data set [1] (scCO2, 308 K, 150 bar), 35 µg/mL; in data set [1] (scCO2, 308 K, 180 bar), 49.7 µg/mL; in data set [1] (scCO2, 318 K, 150 bar), 80.6 µg/mL. The solubility thermodynamic at 1 h in data set [1] (scCO2, 318 K, 210 bar) was found to be 165 µg/mL; in data set [1] (scCO2, 318 K, 240 bar), 210 µg/mL; in data set [1] (scCO2, 328 K, 120 bar), 49.4 µg/mL; in data set [1] (scCO2, 328 K, 150 bar) it was 103 µg/mL; in data set [1] (scCO2, 328 K, 210 bar), 207 µg/mL; in data set [1] (scCO2, 328 K, 270 bar), 356 µg/mL. Also, the solubility thermodynamic at 1 h stood at 53.4 µg/mL in data set [1] (scCO2, 338 K, 120 bar); 126 µg/mL in data set [1] (scCO2, 338 K, 150 bar); 182 µg/mL in data set [1] (scCO2, 338 K, 180 bar); 231 µg/mL in data set [1] (scCO2, 338 K, 210 bar); 291 µg/mL in data set [1] (scCO2, 338 K, 240 bar); 426 µg/mL in data set [1] (scCO2, 338 K, 270 bar). The “Enthalpy of sublimation ΔHsub” value in data set [2] (Bartle et al., model constant B4) is recorded as ~89.1^c (approximate value) kJ/mol. Moreover, the “Total Enthalpy, ΔHtotal” value was 69.80^a kJ/mol in data set [2] (Chrastil's model constant B1) and 62.00^b kJ/mol in data set [2] (Modified Chrastil's model constant B2).
